Results reported in patent publication US20030105158A1, “Hydrates of a neuraminic acid compound and crystalline forms thereof” (SANKYO COMPANY, LIMITED, priority 2000, published 2003).
Where a name gives a salt, the structure may show the parent alone.

Assay: Stability test (storage stability, residual amount by HPLC)
Format: physicochemical
Settings: relative to initial content (100%)
Method: In the stability test, the crystals of the compound (I) of the present invention prepared in Example 1 and as reference, the amorphous powder (trifluoroacetate salt) of compound (I) described in Example 35 of the specification of Japanese Patent Application Publication No. Hei 10-330373 were used. These compounds were stored separately at 40° C. in a desiccator with a relative humidity of 75% for 56 days (8 weeks), and the content of these compounds was measured on 14 (2 weeks), 28 (4 weeks) and 56 days (8 weeks) after the initiation of the storage.
Furthermore, these compounds were also stored separately at 60° C. in a desiccator with silica gel for 56 days (8 weeks), and the content of these compounds was measured in the same manner as that described above.
The contents of these compounds were determined quantitatively with high performance liquid chromatography (HPLC), and the amount of the remaining compounds (%) at each sampling point was calculated based on the initial content (100%) determined immediately before the storage.

[1] = stored at 40° C. in a desiccator with a relative humidity of 75%, 14 days
[2] = stored at 40° C. in a desiccator with a relative humidity of 75%, 28 days
[3] = stored at 40° C. in a desiccator with a relative humidity of 75%, 56 days
[4] = stored at 60° C. in a desiccator with silica gel, 14 days
[5] = stored at 60° C. in a desiccator with silica gel, 28 days
[6] = stored at 60° C. in a desiccator with silica gel, 56 days

Residual amount (amount of the remaining compound) [1] [%]	Residual amount (amount of the remaining compound) [2] [%]	Residual amount (amount of the remaining compound) [3] [%]	Residual amount (amount of the remaining compound) (stored at 40° C. in a desiccator with a relative humidity of 75%, 56 days, listed as amorphous powder (trifluoacetate salt) of compound (I)) [%]	Residual amount (amount of the remaining compound) [4] [%]	Residual amount (amount of the remaining compound) [5] [%]	Residual amount (amount of the remaining compound) [6] [%]	Residual amount (amount of the remaining compound) (stored at 60° C. in a desiccator with silica gel, 56 days, listed as amorphous powder (trifluoacetate salt) of compound (I)) [%]	Residual amount (amount of the remaining compound) (stored at 40° C. in a desiccator with a relative humidity of 75%, 56 days, listed as crystals (hydrated crystals) of compound (I)) [%]	Residual amount (amount of the remaining compound) (stored at 60° C. in a desiccator with silica gel, 56 days, listed as crystals (hydrated crystals) of compound (I))	SMILES
38.5	27.2	10.2	10.2	95.7	92.9	89.0	89	–	–	CCCCCCCC(=O)OC[C@@H](O)[C@@H](OC)[C@@H]1OC(C(=O)O)=C[C@H](NC(=N)N)[C@H]1NC(C)=O [Amorphous powder of compound (I), trifluoroacetate salt of 5-acetamido-4-guanidino-9-O-octanoyl-2,3,4,5-tetradeoxy-7-O-methyl-D-glycero-D-galacto-non-2-enopyranosonic acid]
99.8	100.2	100.3	–	99.9	100.6	99.6	–	100	more than 99%	CCCCCCCC(=O)OC[C@@H](O)[C@@H](OC)[C@@H]1OC(C(=O)O)=C[C@H](NC(=N)N)[C@H]1NC(C)=O [Hydrated crystal of compound (I), 5-Acetamido-4-guanidino-9-O-octanoyl-2,3,4,5-tetradeoxy-7-O-methyl-D-glycero-D-galacto-non-2-enopyranosonic Acid Hydrate in Crystalline Form]
